The text below walks through data of patent US11225462B2, “Crystal forms of oxypyridine amide derivative and preparation method therefor” (JIANGSU HENGRUI MEDICINE CO., LTD., priority 2018, dated 2022).

Data set [1] can be described thus: Long-term and accelerated stability experiments (3 months). Format: physicochemical. The protocol: The long-term (25° C., 60% RH) and accelerated (40° C., 75% RH) stability of crystal form A and crystal form F of the compound of formula (I) were investigated for 3 months.
A short description of data set [2]: Influencing factor experiments (light, high temperature, high humidity, 30 days). Format: physicochemical. The protocol:
Crystal forms A, B, D and F of the compound of formula (I) were spread and left open to the air, and under conditions of high temperature (40° C. and 60° C.), light (4500 Lux), high humidity (RH 75% and RH 90%), the stability thereof were investigated for a period of 30 days.

A short description of data set [3]: DVS (dynamic vapor sorption) hygroscopicity characterization. It is filed as physicochemical. How it is done: DVS refers to dynamic vapor sorption and is determined using SMS DVS Advantage at 25° C., with the humidity change of 50%-95%-0%-95%-50% and the stepping of 10% (5% for the last step) (the specific humidity range is determined in accordance with the corresponding plot, and the methods listed herein are those most commonly used), and the standard for determination is as follow: dm/dt is not more than 0.02%, and Tmax is not more than 360 min.

The conditions of data set [4]: reported in WO 2018041122; cited from earlier work.
The next data set has as its system human blood. To be noted: reported in WO 2018041122; cited from earlier work.
The next data set addresses FXIa (Homo sapiens, UniProt P03951). To be noted: reported in WO 2018041122; cited from earlier work.

The structures appear in SMILES notation.

Chain of FXIa (P03951 388-625 limits assumed): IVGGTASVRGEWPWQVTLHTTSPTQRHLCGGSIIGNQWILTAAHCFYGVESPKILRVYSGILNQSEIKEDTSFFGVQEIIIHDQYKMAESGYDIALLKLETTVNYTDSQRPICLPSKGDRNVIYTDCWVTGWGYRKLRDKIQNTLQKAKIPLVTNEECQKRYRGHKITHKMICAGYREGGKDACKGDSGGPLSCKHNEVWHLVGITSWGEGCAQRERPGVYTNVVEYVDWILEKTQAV
Chain of FXIa (P03951 19-387 partner limits assumed): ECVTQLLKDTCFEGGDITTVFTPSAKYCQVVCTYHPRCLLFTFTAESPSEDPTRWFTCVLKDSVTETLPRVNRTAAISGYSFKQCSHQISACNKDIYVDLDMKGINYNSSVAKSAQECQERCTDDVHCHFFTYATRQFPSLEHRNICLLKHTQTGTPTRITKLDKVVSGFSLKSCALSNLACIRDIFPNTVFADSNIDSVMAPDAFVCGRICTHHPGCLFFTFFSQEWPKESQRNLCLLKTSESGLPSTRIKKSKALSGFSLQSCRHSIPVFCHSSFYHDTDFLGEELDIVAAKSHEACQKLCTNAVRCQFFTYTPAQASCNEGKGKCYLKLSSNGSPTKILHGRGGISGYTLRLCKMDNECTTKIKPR

As to `CCC(=O)c1ccc(Cl)cc1-c1cc(=O)n([C@@H](CCOC(C)(C)C)C(=O)Nc2ccc(C(=O)O)cc2)cc1OC` [Crystal form F, (S)-4-(4-(tert-butoxy)-2-(4-(5-chloro-2-propionylphenyl)-5-methoxy-2-oxopyridin-1(2H)-yl)butanamido)benzoic acid], the “% Purity 1 month” value came to 99.68% in data set [1] (25° C., 60% RH) and 99.68% in data set [1] (40° C., 75% RH). The “% Purity 2 months” value was found to be 99.65% in data set [1] (25° C., 60% RH) and 99.67% in data set [1] (40° C., 75% RH). The “% Purity 3 months” value was found to be 99.65% in data set [1] (25° C., 60% RH) and 99.66% in data set [1] (40° C., 75% RH). For the same compound, the “% Purity Initial condition” value in data set [1] (25° C., 60% RH) came out at 99.69%; in data set [1] (40° C., 75% RH) it was 99.69%. Further, the “physical and chemical stability (conclusion)” value was “good physical and chemical stability” in data set [1] (long-term (25° C., 60% RH) and accelerated (40° C., 75% RH) conditions for 3 months); “good physical and chemical stability” in data set [2] (light, 40° C., 60° C., 75% RH or 90% RH for 30 days). In addition, the “% Purity” value in data set [2] (40° C., 5 days) worked out at 99.67%; in data set [2] (40° C., 10 days) it was 99.62%; in data set [2] (40° C., 30 days), 99.57%; in data set [2] (60° C., 5 days), 99.68%; in data set [2] (60° C., 10 days) it was 99.65%; in data set [2] (60° C., 30 days) it was 99.59%. Further, the “% Purity” value in data set [2] (4500 Lux, 5 days) was 99.66%; in data set [2] (4500 Lux, 10 days) it was 99.64%; in data set [2] (4500 Lux, 30 days), 99.64%; in data set [2] (Initial condition, day 0), 99.67%; in data set [2] (RH 75%, 5 days), 99.65%; in data set [2] (RH 75%, 10 days), 99.63%. The “% Purity” value in data set [2] (RH 75%, 30 days) was found to be 99.62%; in data set [2] (RH 90%, 5 days), 99.66%; in data set [2] (RH 90%, 10 days), 99.63%; in data set [2] (RH 90%, 30 days), 99.65%. Moreover, the “% Weight gain” value in data set [2] (RH 75%, 5 days) stood at 5.23%; in data set [2] (RH 75%, 10 days) it was 5.34%; in data set [2] (RH 75%, 30 days) it was 10.03%; in data set [2] (RH 90%, 5 days), 7.26%; in data set [2] (RH 90%, 10 days) it was 8.40%; in data set [2] (RH 90%, 30 days), 12.83%. In addition, the “mass increase under normal conditions” value in data set [3] (25° C. and 60% RH) is reported as “about 0.0457%”. Also, the “hygroscopicity according to guidelines for drug hygroscopicity test in China Pharmacopoeia (2015 edition)” value in data set [3] (25° C., 10% RH to 80% RH) is listed as “hardly hygroscopic (less than 2%)”. In data set [3] (25° C., 10% RH to 80% RH), the “mass increase as the humidity increases” value is recorded as “about 0.1464%”. Moreover, in data set [3] (70% RH), the “mass increase under accelerated test conditions” value is on record as “about 0.0701%”. Besides, the “mass increase under extreme conditions” value in data set [3] (90% RH) is “about 0.2744%”. Besides, in data set [3] (after DVS detection), the “crystal form before and after DVS detection (XRPD comparison)” value is listed as “unchanged”. For the same compound, the “desorption process and adsorption process of the sample” value in data set [3] (humidity change from 0% to 95%) is recorded as “basically coincide”.
Take `CCC(=O)c1ccc(Cl)cc1-c1cc(=O)n([C@@H](CCOC(C)(C)C)C(=O)Nc2ccc(C(=O)O)cc2)cc1OC` [compound of formula (I), (S)-4-(4-(tert-butoxy)-2-(4-(5-chloro-2-propionylphenyl)-5-methoxy-2-oxopyridin-1(2H)-yl)butanamido)benzoic acid]: in data set [4], the pharmacokinetic absorption entry is listed as “good pharmacokinetic absorption”. The “anticoagulant effect on human blood” value in the data set with human blood is given as “significant anticoagulant effect”. Besides, at FXIa, the “inhibitory effect on FXIa” value is on record as “significant inhibitory effect”.
